From PMC9180926, “Discovery of Novel 3-Hydroxyquinazoline-2,4(1H,3H)-Dione Derivatives: A Series of Metal Ion Chelators with Potent Anti-HCV Activities” (International Journal of Molecular Sciences, 2022)

Key:
[1] = Cytotoxicity assay (CCK-8) on replicon cells; type: cell-based; conditions: human, HCV 1b replicon cells (Huh-7.5.1); 50% cytotoxic concentration; CCK-8, HCV 1b replicon cells, 72 h
Experimental: (§1) The HCV replicons were validated as convenient and effective models for testing the anti-HCV activity. Since HCV subtype 1b is one of the major subtypes worldwide, especially in China, the replicon model from the Huh-7.5.1 cell line integrating HCV 1b genome encoding the nonstructural proteins was chosen to evaluate the anti-HCV activities of 3-hydroxyquinazoline-2,4(1H,3H)-diones. The inhibitory rates of the compounds on HCV replicon cells were determined at concentrations of 25 μM and 10 μM, respectively. The broad-spectrum antiviral drug ribavirin (RBV) and the NS5B nucleoside inhibitor 2′-C-methyladenosine (2CMA) were selected as positive controls. The cytotoxicity of these compounds on replicon cells was determined using the cell counting kit-8 (CCK-8) assay.
The HCV 1b replicon cells were incubated and treated with test compounds or blank DMSO in a 48-well plate using the same materials and methods as described in the experimental procedure of anti-HCV assay. The final concentration of DMSO in each well was 0.1%. After 72 h of drug treatment, the culture medium in the well plate was removed, and cells in each well were washed with 300 μL of PBS. A total of 300 μL of pre-prepared fresh culture medium containing 30 μL CCK-8 reagent (Donjindo, Kumamoto, Japan) was added to each well, and the plate was incubated at 5% CO2/37 °C for 2 h. The OD (optical density) value of each well at 450 nm was measured using a multi-function microplate reader (SpectraMax M5, Molecular Devices, San Jose, CA, USA). The death ratio of each well was calculated using the following equation, in which ODcompound or ODblank represents the measured OD value of the compound group or the blank control (DMSO), respectively:death ratio = (1−ODcompound/ODblank) × 100%(2)
The cell death data under at least six different concentration gradients were imported into GraphPad Prism 7.0.0 software (GraphPad Software Inc., San Diego, CA, USA), and the CC50 (50% cytotoxic concentration) values were calculated using the nonlinear fitting method.

[2] = tested on: HCV 1b replicon cells (Huh-7.5.1); assay: Anti-HCV assay, HCV 1b replicon cells with luciferase reporter; type: cell-based, hepatitis C virus (HCV) subtype 1b; conditions: HCV 1b replicon cells; for EC50: mean ± SD; for inhibition at 10 µM / inhibition at 25 µM: Huh-7.5.1, 72 h, 72 h; for inhibition at 10 µM: inhibitory rate at 10 μM, read-out: HCV Inhibition 10 μM; for inhibition at 25 µM: inhibitory rate at 25 μM, read-out: HCV Inhibition 25 μM
Experimental: as §1
HCV 1b replicon cells (Huh-7.5.1) containing luciferase reporter gene were kindly provided by Prof. Zhenghong Yuan (Key Laboratory of Medical Molecular Virology, Fudan University, Shanghai, China). The replicon cells were plated at 1.5 × 10^4 cells per well in a 48-well plate (Corning Inc., New York, NY, USA) at 5% CO2/37 °C. The culture medium was Dulbecco’s Modified Eagle Medium (DMEM, pH 7.3, Shanghai XP Biomed Ltd., Shanghai, China) containing 10% fetal bovine serum (Shanghai XP Biomed Ltd., Shanghai, China), 10^5 U/L penicillin, 0.1 g/L streptomycin, and 0.5 μg/mL blasticidin. After 12 h, the culture medium in each well was replaced with 300 μL of pre-prepared fresh culture medium containing test compound (dissolved in DMSO with specific concentration) or blank DMSO. The final concentration of DMSO in the culture medium in the plate was 0.1%. Each group was tested at least twice in parallel. Ribavirin and 2CMA were used as the positive controls. After incubating the drug-added plate at 5% CO2/37 °C for 72 h, the medium was removed, and each well was washed with 300 μL of phosphate buffer solution (PBS, Shanghai XP Biomed Ltd., Shanghai, China). The cells in each well were then lysed with 50 μL of 1× lysis buffer (E2820, Promega, Madison, WI, USA). Subsequently, 50 μL of 1× luciferase assay substrate (E2820, Promega, Madison, WI, USA) was mixed with 20 μL of the harvested cell lysates.
The inhibitory rates under at least six different concentration gradients were imported into GraphPad Prism 7.0 software to calculate the anti-HCV EC50 values of the compounds using the nonlinear fitting method.

[3] = tested on: HCV 1b replicon cells (Huh-7.5.1); assay: as above; type: cell-based, hepatitis C virus (HCV) subtype 1b; conditions: Hepatitis C virus, Huh-7.5.1, 72 h, inhibitory rate at 5 μM
[4] = Hepatitis C virus, Huh-7.5.1, 50% effective concentration

SMILES	CC50 at 72 h [1] [µM]	EC50 [2, 4] [µM]	inhibition at 10 µM ([2]; Hepatitis C virus) [%]	inhibition at 5 µM [3] [%]	inhibition at 25 µM ([2]; Hepatitis C virus) [%]	EC50 ([2]; 50% effective concentration) [µM]
Nc1cccc(-c2ccc3c(=O)n(O)c(=O)[nH]c3c2)c1 [21j, 7-(3-Aminophenyl)-3-hydroxyquinazoline-2,4(1H,3H)-dione]	13 ± 0.8	7.3 ± 1.3	51	16.1		
O=c1[nH]c2cc(Br)ccc2c(=O)n1O [compound 19, 7-Bromo-3-hydroxyquinazoline-2,4(1H,3H)-dione]	37.6 ± 2.6	19 ± 1.8	41.1	23.5	72	
COc1ccc(-c2ccc3[nH]c(=O)n(O)c(=O)c3c2)cc1 [21c, 3-Hydroxy-6-(4-methoxyphenyl)quinazoline-2,4(1H,3H)-dione]	14.8 ± 5.3	7.2 ± 0.8	48.2	11.1		
O=c1[nH]c2ccc(-c3cccc([N+](=O)[O-])c3)cc2c(=O)n1O [21d, 3-Hydroxy-6-(3-nitrophenyl)quinazoline-2,4(1H,3H)-dione]	6.6 ± 1.5	4.8 ± 0.8	78.5	71.1		
O=c1[nH]c2c(-c3ccccc3)cccc2c(=O)n1O [21u, 3-Hydroxy-8-phenylquinazoline-2,4(1H,3H)-dione]			27.5	1.8	40.9	
Cn1c(=O)n(O)c(=O)c2ccc(-c3ccc(F)cc3)cc21 [23c, 7-(4-Fluorophenyl)-3-hydroxy-1-methylquinazoline-2,4(1H,3H)-dione]	8.1 ± 0.2	4.6 ± 0.5	79.1	40.6		
Cn1c(=O)n(O)c(=O)c2ccc(-c3ccccc3)cc21 [23b, 3-Hydroxy-1-methyl-7-phenylquinazoline-2,4(1H,3H)-dione]	6.7 ± 0.3	3.9 ± 1	79.5	39.2		
O=c1[nH]c2ccc(-c3ccc(F)cc3)cc2c(=O)n1O [21b, 6-(4-Fluorophenyl)-3-hydroxyquinazoline-2,4(1H,3H)-dione]	8 ± 2.2	6.1 ± 0.1	79.7	47.7		
COc1ccc(-c2ccc3c(=O)n(O)c(=O)[nH]c3c2)cc1F [21o, 7-(3-Fluoro-4-methoxyphenyl)-3-hydroxyquinazoline-2,4(1H,3H)-dione]	4.3 ± 0.4	3.9 ± 2.2	71.3			
Cc1ccc(F)cc1-c1ccc2c(=O)n(O)c(=O)[nH]c2c1 [21p, 7-(5-Fluoro-2-methylphenyl)-3-hydroxyquinazoline-2,4(1H,3H)-dione]	13.4 ± 5.2	9.9 ± 0.6	44.9			
O=c1[nH]c2ccc(-c3ccccc3)cc2c(=O)n1O [21a, 3-Hydroxy-6-phenylquinazoline-2,4(1H,3H)-dione]	5.5 ± 1	4.3 ± 0.7	65.4	35.6		
O=c1[nH]c2cc(-c3cccnc3)ccc2c(=O)n1O [21r, 3-Hydroxy-7-(pyridin-3-yl)quinazoline-2,4(1H,3H)-dione]			26.9	-5.5	65.4	
N#Cc1ccc(NC(=O)Cn2c(=O)n(O)c(=O)c3ccccc32)cc1 [10n, N-(4-Cyanophenyl)-2-(3-hydroxy-2,4-dioxo-3,4-dihydroquinazolin-1(2H)-yl)acetamide]	10.6 ± 0.3	< 10	58		66	6.4 ± 0.3
COc1ccc(-c2ccc3c(=O)n(O)c(=O)n(C)c3c2)cc1 [23d, 3-Hydroxy-7-(4-methoxyphenyl)-1-methylquinazoline-2,4(1H,3H)-dione]	9.3 ± 0.4	3.3 ± 0.2	73.3			
O=C(Cn1c(=O)n(O)c(=O)c2ccccc21)c1ccccc1 [10e, 3-Hydroxy-1-(2-oxo-2-phenylethyl)quinazoline-2,4(1H,3H)-dione]	13.1 ± 1.7	11.3 ± 3	46.1		68	
